Results: patent US20240217950A1, “PESTICIDALLY ACTIVE CYCLIC AMINE COMPOUNDS” (SYNGENTA CROP PROTECTION AG, priority 2021, published 2024)

Tested on: Tetranychus urticae (Two-Spotted Spider Mite)
Assay: Tetranychus urticae (two-spotted spider mite) feeding/contact activity on bean leaf discs
Format: in vivo
Conditions: foliar, 192 h, application rate of 200 ppm, sprayed bean leaf discs, mixed population (mobile stages), 8 days after infestation
Procedure: Example B1: Tetranychus urticae (Two-Spotted Spider Mite)
Feeding/contact activity Bean leaf discs on agar in 24-well microtiter plates were sprayed with aqueous test solutions prepared from 10′000 ppm DMSO stock solutions. After drying the leaf discs were infested with a mite population of mixed ages. The samples were assessed for mortality on mixed population (mobile stages) 8 days after infestation.

SMILES: COCc1nc(OCc2cc(C(F)(F)F)ccc2F)c(C#N)cc1C(=O)N1CCC(c2noc(C)n2)CC1 [Compound P1.2, 2-[[2-fluoro-5-(trifluoromethyl)phenyl]methoxy]-6-(methoxymethyl)-5-[4-(5-methyl-1,2,4-oxadiazol-3-yl)piperidine-1-carbonyl]pyridine-3-carbonitrile]
- mortality at 200 ppm: ≥ 80%
